Values of other authors, collected in patent publication US20160331734A1, “SUBSTITUTED N-ARYL PYRIDINONES” (AUSPEX PHARMACEUTICALS, INC., priority 2014, published 2016).

How the values were obtained:
[1] = humans

half-life [1]: very short
Structure (SMILES): Cc1ccc(=O)n(-c2ccccc2)c1 [Pirfenidone, 5-Methyl-1-phenylpyridin-2(1H)-one]
DNA synthesis (leiomyoma cells): inhibits DNA synthesis
DNA synthesis (myometrial cells): inhibits DNA synthesis
